pIC50: −log10 of the molar value.
Key:
Androgen (Testosterone) = molecular target: T1, Androgen (Testosterone) (Homo sapiens, UniProt P10275, T878A); assay: SafetyScreen44 206000; type: binding; conditions: 10 μM; [3H]Methyltrienolone; LNCaP clone FGC cells
T1 construct: Eurofins-Panlabs (contract screen) 206000
Method: (§1) A broad screen of 44 molecular targets (SafetyScreen44, Eurofins-Panlabs) for Ariadne were performed, which includes G protein-coupled receptors, steroid nuclear receptors, ion channels, neurotransmitter transporters, and metabolic and signaling enzymes. Only two molecular targets, 5-HT2A and 5-HT2B receptors, emerged above the positive hit threshold, defined as 50% displacement of standard radioligands by 10 uM concentration of Ariadne (FIG. 1b, and Table 1).
(§2) For species, “H”=human, “R”=rat. Test compound screened at all targets at concentration of 10 μM.

Cannabinoid CB2 = molecular target: T2, Cannabinoid CB2 (Homo sapiens, UniProt P34972); assay: SafetyScreen44 217100; type: binding; conditions: 10 μM; [3H]WIN-55, 212-2; recombinant
T2 construct: Eurofins-Panlabs (contract screen) 217100
Method: as §1, §2

Dopamine D2S = molecular target: T3, Dopamine D2S (Homo sapiens, UniProt P14416); assay: SafetyScreen44 219700; type: binding; conditions: 10 μM; [3H]Spiperone; recombinant
T3 construct: Eurofins-Panlabs (contract screen) 219700
Method: as §1, §2

Opiate δ1 (OP1, DOP) = molecular target: T4, Opiate δ1 (OP1, DOP) (Homo sapiens, UniProt P41143); assay: SafetyScreen44 260130; type: binding; conditions: 10 μM; [3H]Naltrindole; recombinant
T4 construct: purchased Eurofins-Panlabs (contract screen SafetyScreen44) assay ID 260130
Method: as §1, §2

Opiate μ (OP3, MOP) = molecular target: T5, Opiate μ (OP3, MOP) (Homo sapiens, UniProt P35372); assay: SafetyScreen44 260410; type: binding; conditions: 10 μM; [3H]Diprenorphine; recombinant
T5 construct: purchased Eurofins-Panlabs (contract screen SafetyScreen44) assay ID 260410
Method: as §1, §2

Vasopressin V1A = molecular target: T6, Vasopressin V1A (Homo sapiens, UniProt P37288); assay: SafetyScreen44 287530; type: binding; conditions: 10 μM; [125I]Phenylacetyl Tyr(Me)PheGlnAsnArgProArgTyr; recombinant
T6 construct: purchased Eurofins-Panlabs (contract screen SafetyScreen44) assay ID 287530
Method: as §1, §2

hDAT = hDAT (Homo sapiens, UniProt Q01959); assay: DAT fluorescence uptake inhibition; type: cell-based
rat smooth muscle = conditions: compared to serotonin and (R)-DOM; cited from earlier work

T3 sequence (P14416 1-414 isoform P14416-2): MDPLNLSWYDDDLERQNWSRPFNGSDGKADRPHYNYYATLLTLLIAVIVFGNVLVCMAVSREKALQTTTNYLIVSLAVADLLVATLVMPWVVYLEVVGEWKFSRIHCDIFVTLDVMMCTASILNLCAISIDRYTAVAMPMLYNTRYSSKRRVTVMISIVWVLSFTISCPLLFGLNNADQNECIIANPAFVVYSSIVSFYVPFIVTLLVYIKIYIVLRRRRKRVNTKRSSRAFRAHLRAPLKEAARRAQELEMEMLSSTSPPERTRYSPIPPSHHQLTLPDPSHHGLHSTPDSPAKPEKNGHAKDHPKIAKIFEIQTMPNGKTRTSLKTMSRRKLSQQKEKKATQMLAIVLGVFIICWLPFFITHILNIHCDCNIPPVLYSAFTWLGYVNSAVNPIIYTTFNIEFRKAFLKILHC
hDAT, sequence (Q01959 whole entry): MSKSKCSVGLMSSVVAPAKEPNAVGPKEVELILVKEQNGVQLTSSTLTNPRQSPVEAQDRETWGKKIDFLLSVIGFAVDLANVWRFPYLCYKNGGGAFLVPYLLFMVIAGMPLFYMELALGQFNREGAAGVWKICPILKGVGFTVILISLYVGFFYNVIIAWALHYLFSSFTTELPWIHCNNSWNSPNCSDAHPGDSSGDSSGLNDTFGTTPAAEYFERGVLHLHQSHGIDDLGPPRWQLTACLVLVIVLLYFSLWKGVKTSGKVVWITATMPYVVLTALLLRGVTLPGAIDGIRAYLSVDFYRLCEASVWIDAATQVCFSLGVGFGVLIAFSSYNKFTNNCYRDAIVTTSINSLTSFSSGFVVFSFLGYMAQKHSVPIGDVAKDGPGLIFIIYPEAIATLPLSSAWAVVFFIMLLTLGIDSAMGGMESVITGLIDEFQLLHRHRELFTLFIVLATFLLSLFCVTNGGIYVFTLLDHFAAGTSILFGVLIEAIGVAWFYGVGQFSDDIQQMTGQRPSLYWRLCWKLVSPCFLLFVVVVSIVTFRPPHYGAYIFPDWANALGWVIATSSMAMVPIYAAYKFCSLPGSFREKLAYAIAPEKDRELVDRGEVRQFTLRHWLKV
T5 sequence (P35372 whole entry): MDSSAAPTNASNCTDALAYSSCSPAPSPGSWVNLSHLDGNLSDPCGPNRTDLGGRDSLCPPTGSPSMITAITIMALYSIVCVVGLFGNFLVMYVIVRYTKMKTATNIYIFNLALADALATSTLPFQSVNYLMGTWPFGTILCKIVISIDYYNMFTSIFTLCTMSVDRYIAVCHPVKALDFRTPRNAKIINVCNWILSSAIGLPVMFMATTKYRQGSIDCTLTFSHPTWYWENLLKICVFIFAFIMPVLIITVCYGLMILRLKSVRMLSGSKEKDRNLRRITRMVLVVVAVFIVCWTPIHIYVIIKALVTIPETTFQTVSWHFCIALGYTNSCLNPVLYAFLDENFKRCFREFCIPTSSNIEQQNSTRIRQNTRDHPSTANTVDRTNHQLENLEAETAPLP
T4 sequence (P41143 whole entry): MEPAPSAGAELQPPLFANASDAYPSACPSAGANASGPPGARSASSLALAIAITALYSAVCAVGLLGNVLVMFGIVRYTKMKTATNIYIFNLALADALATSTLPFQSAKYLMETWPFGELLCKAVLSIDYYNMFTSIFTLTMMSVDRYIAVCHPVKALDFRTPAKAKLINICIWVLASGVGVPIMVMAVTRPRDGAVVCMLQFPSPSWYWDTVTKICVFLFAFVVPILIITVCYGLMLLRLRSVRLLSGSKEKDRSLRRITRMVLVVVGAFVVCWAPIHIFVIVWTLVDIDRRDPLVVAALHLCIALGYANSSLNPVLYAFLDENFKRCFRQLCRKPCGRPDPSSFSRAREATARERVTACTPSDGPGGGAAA
T2 sequence (P34972 whole entry): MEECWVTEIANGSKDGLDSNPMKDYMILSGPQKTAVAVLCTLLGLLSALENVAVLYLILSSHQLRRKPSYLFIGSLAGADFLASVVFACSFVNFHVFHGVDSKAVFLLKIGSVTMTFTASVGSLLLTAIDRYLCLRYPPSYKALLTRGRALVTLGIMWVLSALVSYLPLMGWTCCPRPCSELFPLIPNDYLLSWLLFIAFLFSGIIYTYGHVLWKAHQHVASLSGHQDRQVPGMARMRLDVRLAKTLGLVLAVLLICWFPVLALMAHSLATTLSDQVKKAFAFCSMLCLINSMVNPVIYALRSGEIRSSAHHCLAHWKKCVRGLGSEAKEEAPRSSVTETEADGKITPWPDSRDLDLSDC
T1 sequence (P10275 whole entry T878A): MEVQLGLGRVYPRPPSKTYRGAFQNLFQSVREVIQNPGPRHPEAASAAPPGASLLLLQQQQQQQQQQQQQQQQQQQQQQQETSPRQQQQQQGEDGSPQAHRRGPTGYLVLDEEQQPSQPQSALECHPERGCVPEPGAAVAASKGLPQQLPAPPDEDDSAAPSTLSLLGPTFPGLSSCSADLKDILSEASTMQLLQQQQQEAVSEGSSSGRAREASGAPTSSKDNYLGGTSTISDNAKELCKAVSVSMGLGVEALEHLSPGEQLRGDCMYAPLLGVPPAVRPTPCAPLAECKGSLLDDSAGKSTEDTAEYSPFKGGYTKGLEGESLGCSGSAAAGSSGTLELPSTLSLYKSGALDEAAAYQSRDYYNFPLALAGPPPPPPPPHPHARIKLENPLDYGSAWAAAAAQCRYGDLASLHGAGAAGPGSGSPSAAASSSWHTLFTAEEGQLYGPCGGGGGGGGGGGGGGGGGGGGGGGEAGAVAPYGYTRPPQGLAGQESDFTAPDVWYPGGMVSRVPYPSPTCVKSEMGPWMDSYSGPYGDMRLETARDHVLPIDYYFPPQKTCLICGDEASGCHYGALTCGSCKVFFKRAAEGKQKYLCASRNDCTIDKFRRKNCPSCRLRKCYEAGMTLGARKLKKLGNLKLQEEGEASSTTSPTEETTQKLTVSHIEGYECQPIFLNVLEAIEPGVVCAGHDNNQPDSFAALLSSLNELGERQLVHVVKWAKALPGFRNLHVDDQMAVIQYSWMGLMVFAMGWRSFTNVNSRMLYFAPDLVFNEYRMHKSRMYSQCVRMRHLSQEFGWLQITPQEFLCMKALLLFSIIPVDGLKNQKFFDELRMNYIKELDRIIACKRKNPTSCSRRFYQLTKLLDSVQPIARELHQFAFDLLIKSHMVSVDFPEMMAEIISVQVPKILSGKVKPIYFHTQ
T6 sequence (P37288 whole entry): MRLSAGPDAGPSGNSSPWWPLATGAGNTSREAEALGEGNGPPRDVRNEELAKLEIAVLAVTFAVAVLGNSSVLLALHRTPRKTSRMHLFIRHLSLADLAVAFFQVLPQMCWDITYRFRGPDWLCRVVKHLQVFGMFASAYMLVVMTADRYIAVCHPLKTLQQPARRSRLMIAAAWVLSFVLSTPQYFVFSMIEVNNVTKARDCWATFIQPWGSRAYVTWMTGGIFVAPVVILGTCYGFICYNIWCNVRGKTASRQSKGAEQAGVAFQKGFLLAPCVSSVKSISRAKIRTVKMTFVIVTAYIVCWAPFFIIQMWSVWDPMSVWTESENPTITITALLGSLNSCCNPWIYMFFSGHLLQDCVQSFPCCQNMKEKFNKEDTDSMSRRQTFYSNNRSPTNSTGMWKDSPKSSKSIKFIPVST

Q: Which results are given for `CCC(N)Cc1cc(OC)c(C)cc1OC` (racemic) [Compound 32, 1-(2,5-dimethoxy-4-methylphenyl)butan-2-amine]?
A: % Response (Androgen (Testosterone)): −8%; % Response (Cannabinoid CB2): −7%; % Response (Dopamine D2S): 1%; % Response (Opiate δ1 (OP1, DOP)): 4%; % Response (Opiate μ (OP3, MOP)): −11%; % Response (Vasopressin V1A): −5%; pIC50 (hDAT): < 4.30; serotonergic-like effect (rat smooth muscle): weak serotonergic-like effect
